Reference: publication PMC5159558 (Nucleic Acids Research, 2016)

Columns and labels:
RET1ΔNC = molecular target: T1, RET1ΔNC (Trypanosoma brucei, UniProt Q8WQX5); experiment: X-ray crystal structure, […] Å; assay type: binding; conditions: 0.5 mM UMPnPP, 1 mM MgCl2; active site; non-hydrolysable UTP analogue
T1 sequence (Q8WQX5 189-699): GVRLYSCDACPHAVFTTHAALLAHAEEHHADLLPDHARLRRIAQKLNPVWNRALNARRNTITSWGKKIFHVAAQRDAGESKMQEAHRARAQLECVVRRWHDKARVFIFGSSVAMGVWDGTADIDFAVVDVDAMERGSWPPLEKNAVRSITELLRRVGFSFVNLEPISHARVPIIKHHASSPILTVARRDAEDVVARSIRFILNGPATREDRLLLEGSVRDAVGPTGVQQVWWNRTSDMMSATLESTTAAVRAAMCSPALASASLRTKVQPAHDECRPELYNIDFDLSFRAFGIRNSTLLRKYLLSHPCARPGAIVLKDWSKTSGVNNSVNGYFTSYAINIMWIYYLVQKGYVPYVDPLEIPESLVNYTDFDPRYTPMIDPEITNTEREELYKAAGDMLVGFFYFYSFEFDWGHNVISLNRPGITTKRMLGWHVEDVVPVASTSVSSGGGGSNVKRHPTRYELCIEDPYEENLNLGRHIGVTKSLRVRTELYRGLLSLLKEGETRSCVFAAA

TUT4 = molecular target: T2, TUT4 (Trypanosoma brucei, UniProt Q381M1); experiment: X-ray crystal structure, […] Å; assay type: binding; conditions: Mg2+
T2 sequence (Q381M1 1-333): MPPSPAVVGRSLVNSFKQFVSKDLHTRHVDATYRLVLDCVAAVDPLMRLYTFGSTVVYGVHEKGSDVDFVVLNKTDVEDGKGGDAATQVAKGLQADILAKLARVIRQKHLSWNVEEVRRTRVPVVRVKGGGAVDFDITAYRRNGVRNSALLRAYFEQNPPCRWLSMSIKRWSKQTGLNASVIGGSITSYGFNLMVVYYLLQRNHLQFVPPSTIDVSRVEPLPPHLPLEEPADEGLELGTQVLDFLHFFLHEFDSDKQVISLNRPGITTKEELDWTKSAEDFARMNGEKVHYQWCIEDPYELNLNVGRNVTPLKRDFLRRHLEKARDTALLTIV

SMILES: O=c1ccn([C@@H]2O[C@H](COP(=O)(O)NP(=O)(O)OP(=O)(O)O)[C@@H](O)[C@H]2O)c(=O)[nH]1 [UMPnPP]
- X-ray crystal structure, 1.8 Å (soaked crystals) (RET1ΔNC): Crystals of RET1ΔNC in complex with the UTP analog UMPNPP were obtained by soaking

SMILES: O=c1ccn([C@@H]2O[C@H](COP(=O)(O)O[C@H]3[C@@H](O)[C@H](n4ccc(=O)[nH]c4=O)O[C@@H]3CO)[C@@H](O)[C@H]2O)c(=O)[nH]1 [UpU]
- X-ray crystal structure, 2.75 Å (TUT4; ternary complex with UTP, crystals soaked in 1 mM UpU): structure of TUT4 from T. brucei with bound UTP and RNA-mimicking dinucleotide UpU

SMILES: O=c1ccn([C@@H]2O[C@H](COP(=O)(O)OP(=O)(O)OP(=O)(O)O)[C@@H](O)[C@H]2O)c(=O)[nH]1 [UTP]
- X-ray crystal structure, 2.75 Å (TUT4; ternary complex with UpU, co-crystallised with UTP): structure of TUT4 from T. brucei with bound UTP and RNA-mimicking dinucleotide UpU
